From patent publication US20250122219A1 (priority 2023, published 2025) come the findings set out here.

SMILES strings stand for the structures. pEC50: −log10 of the molar value. Where two headings read alike, the source gives them in different places.

Data set [1] is described as follows: Cytotoxicity assay in MT-4 cells. Type of data set: cell-based. Conditions: human; uninfected MT-4 cells, 5 days incubation, Cell Titer Glo; read-out: MT4 CC50. As to the method: (§1) Compounds were tested in a high-throughput 384-well assay format for their ability to inhibit the replication of HIV-1 (IIIB) in MT-4 cells. Compounds were serially diluted (1.3) in DMSO on 384-well polypropylene plates and further diluted 200-fold into complete RPMI media (10% FBS, 1% P/S) using the Biotek Micro Flow and Labcyte ECHO acoustic dispenser. Each plate contained up to 8 test compounds, with negative (No Drug Control) and 5 μM AZT positive controls. MT-4 cells were pre-infected with 10 μL of either RPMI (mock-infected) or a fresh 1:250 dilution of HIV-1 IIIB concentrated virus stock. Infected and uninfected MT-4 cells were further diluted in complete RPMI media and added to each plate using a Micro Flow dispenser. After 5 days incubation in a humidified and temperature controlled incubator (37° C.), Cell Titer Glo (Promega) was added to the assay plates and chemiluminescence read using an Envision plate-reader.
Assays were performed as above except uninfected MT-4 cells were added to each well containing test compound. In addition, […] puromycin was added to the last column of each assay plate to assess a base level of cytotoxicity.

A further data set relates to HIV-1 (IIIB). The data set can be described thus: Antiviral assay in MT-4 cells. In kind it is cell-based. Conditions: for pEC50: Human immunodeficiency virus 1, MT4, 120 h, HIV-1 IIIB in MT-4 cells, 5 days incubation, Cell Titer Glo, read-out: MT4 EC50; for EC50: Human immunodeficiency virus 1, IIIB, MT4, 120 h, read-out: MT4 EC50 (nM). As to the method:
as §1
Background: In ATP-based viability assays light output follows the ATP content of the culture.

On to `COCCOC(=O)Oc1c2n(cc(C(=O)NCc3ccc(F)cc3F)c1=O)[C@@H]1CN(C2=O)[C@@H](C)CC[C@]12CC(OC)=NO2` [Example 1, (3′S,5S,7′R)-10′-((2,4-difluorobenzyl)carbamoyl)-3-methoxy-3′-methyl-1′,11′-dioxo-1′,4′,5′,11′-tetrahydro-3′H,4H,7′H-spiro[isoxazole-5,6′-[2,7]methanopyrido[1,2-a][1],4diazonin]-12′-yl (2-methoxyethyl) carbonate], for which the CC50 at 5 days in data set [1] came to 10.9 µM. Also, the pEC50 in the data set on HIV-1 (IIIB) is 8.83.
`COCCOCCOC(=O)Oc1c2n(cc(C(=O)NCc3ccc(F)cc3F)c1=O)[C@@H]1CN(C2=O)[C@@H](C)CC[C@]12CC(OC)=NO2` [Example 2, (3′S,5S,7′R)-1O′-((2,4-difluorobenzyl)carbamoyl)-3-methoxy-3′-methyl-1′,11′-dioxo-1′,4′,5′,11′-tetrahydro-3′H,4H,7′H-spiro[isoxazole-5,6′-[2,7]methanopyrido[1,2-a][1,4]diazonin]-12′-yl (2-(2-methoxyethoxy)ethyl) carbonate]: the CC50 at 5 days in data set [1] was 11.5 µM. In addition, the EC50 in the data set with HIV-1 (IIIB) turned out to be 0.79 nM.
Turning to `COCCOCCOC(=O)OCOc1c2n(cc(C(=O)NCc3ccc(F)cc3F)c1=O)[C@@H]1CN(C2=O)[C@@H](C)CC[C@]12CC(OC)=NO2` [Example 4, (((3′S,5S,7′R)-10′-((2,4-difluorobenzyl)carbamoyl)-3-methoxy-3′-methyl-1′,11′-dioxo-1′,4′,5′,11′-tetrahydro-3′H,4H,7′H-spiro[isoxazole-5,6′-[2,7]methanopyrido[1,2-a][1,4]diazonin]-12′-yl)oxy)methyl (2-(2-methoxyethoxy)ethyl) carbonate], the CC50 at 5 days in data set [1] is at least 50 µM. Moreover, the pEC50 in the data set on HIV-1 (IIIB) was 7.81.
On the same counts, the results for `CCCCCCCCCCCCCCCCCC(=O)Oc1c2n(cc(C(=O)NCc3ccc(F)cc3F)c1=O)[C@@H]1CN(C2=O)[C@@H](C)CC[C@]12CC(OC)=NO2` [Example 6, (3′S,5S,7′R)-10′-((2,4-difluorobenzyl)carbamoyl)-3-methoxy-3′-methyl-1′,11′-dioxo-1′,4′,5′,11′-tetrahydro-3′H,4H,7′H-spiro[isoxazole-5,6′-[2,7]methanopyrido[1,2-a][1,4]diazonin]-12′-yl stearate] are at least 50 µM and 8.02.
`CCCCC/C=C\C/C=C\CCCCCCCC(=O)Oc1c2n(cc(C(=O)NCc3ccc(F)cc3F)c1=O)[C@@H]1CN(C2=O)[C@@H](C)CC[C@]12CC(OC)=NO2` [Example 7, (3′S,5S,7′R)-10′-((2,4-difluorobenzyl)carbamoyl)-3-methoxy-3′-methyl-1′,11′-dioxo-1′,4′,5′,11′-tetrahydro-3′H,4H,7′H-spiro[isoxazole-5,6′-[2,7]methanopyrido[1,2-a][1,4]diazonin]-12′-yl (9Z,12Z)-octadeca-9,12-dienoate]: the CC50 at 5 days in data set [1] was at least 50 µM. The pEC50 in the data set with HIV-1 (IIIB) is 8.13.
As to `COCCOC(=O)Oc1c2n(cc(C(=O)NCc3ccc(F)cc3F)c1=O)[C@@H]1CN(C2=O)[C@@H](C)CC[C@]12CC(C)=NO2` [Example 9, (3′S,5S,7′R)-10′-((2,4-difluorobenzyl)carbamoyl)-3,3′-dimethyl-1′,11′-dioxo-1′,4′,5′,11′-tetrahydro-3′H,4H,7′H-spiro[isoxazole-5,6′-[2,7]methanopyrido[1,2-a][1,4]diazonin]-12′-yl (2-methoxyethyl) carbonate], the CC50 at 5 days in data set [1] was 19.6 µM. Moreover, the pEC50 with HIV-1 (IIIB) is 8.79.
On the same counts, the results for `CCCCCCCCCCCCCC(=O)Oc1c2n(cc(C(=O)NCc3ccc(F)cc3F)c1=O)[C@@H]1CN(C2=O)[C@@H](C)CC[C@]12CC(C)=NO2` [Example 13, (3′S,5S,7′R)-10′-((2,4-difluorobenzyl)carbamoyl)-3,3′-dimethyl-1′,11′-dioxo-1′,4′,5′,11′-tetrahydro-3′H,4H,7′H-spiro[isoxazole-5,6′-[2,7]methanopyrido[1,2-a][1,4]diazonin]-12′-yl tetradecanoate] are 13.4 µM and 8.32.
On the same counts, the results for `CCCCCCCCCCCCCCCC(=O)Oc1c2n(cc(C(=O)NCc3ccc(F)cc3F)c1=O)[C@@H]1CN(C2=O)[C@@H](C)CC[C@]12CC(C)=NO2` [Example 14, (3′S,5S,7′R)-10′-((2,4-difluorobenzyl)carbamoyl)-3,3′-dimethyl-1′,11′-dioxo-1′,4′,5′,11′-tetrahydro-3′H,4H,7′H-spiro[isoxazole-5,6′-[2,7]methanopyrido[1,2-a][1,4]diazonin]-12′-yl palmitate] are at least 50 µM and 8.19.
On to `CC1=NO[C@@]2(CC[C@H](C)N3C[C@H]2n2cc(C(=O)NCc4ccc(F)cc4F)c(=O)c(OCOC(=O)C(C)(C)C)c2C3=O)C1` [Example 18, (((3′S,5S,7′R)-10′-((2,4-difluorobenzyl)carbamoyl)-3,3′-dimethyl-1′,11′-dioxo-1′,4′,5′,11′-tetrahydro-3′H,4H,7′H-spiro[isoxazole-5,6′-[2,7]methanopyrido[1,2-a][1,4]diazonin]-12′-yl)oxy)methyl pivalate], for which, in data set [1], the CC50 at 5 days turned out to be 20.1 µM. In the data set with HIV-1 (IIIB), the pEC50 is 8.56.
Consider `COCCOCCOC(=O)OCOc1c2n(cc(C(=O)NCc3ccc(F)cc3F)c1=O)[C@@H]1CN(C2=O)[C@@H](C)CC[C@]12CC(C)=NO2` [Example 23, (((3′S,5S,7′R)-10′-((2,4-difluorobenzyl)carbamoyl)-3,3′-dimethyl-1′,11′-dioxo-1′,4′,5′,11′-tetrahydro-3′H,4H,7′H-spiro[isoxazole-5,6′-[2,7]methanopyrido[1,2-a][1,4]diazonin]-12′-yl)oxy)methyl (2-(2-methoxyethoxy)ethyl) carbonate], for which the CC50 at 5 days in data set [1] worked out at 27.3 µM. Moreover, in the data set with HIV-1 (IIIB), the pEC50 is 8.55.
In the case of `COC1=NO[C@@]2(CC[C@H](C)N3C[C@H]2n2cc(C(=O)NCc4ccc(F)cc4F)c(=O)c(OC(=O)/C=C/C(=O)O)c2C3=O)C1` [Example 25, (E)-4-(((3′S,5S,7′R)-10′-((2,4-difluorobenzyl)carbamoyl)-3-methoxy-3′-methyl-1′,11′-dioxo-1′,4′,5′,11′-tetrahydro-3′H,4H,7′H-spiro[isoxazole-5,6′-[2,7]methanopyrido[1,2-a][1,4]diazonin]-12′-yl)oxy)-4-oxobut-2-enoic acid], the CC50 at 5 days in data set [1] turned out to be 16.2 µM. The EC50 in the data set on HIV-1 (IIIB) was 1.9 nM.
Turning to `COC[C@H](C)OC(=O)OCOc1c2n(cc(C(=O)NCc3ccc(F)cc3F)c1=O)[C@@H]1CN(C2=O)[C@@H](C)CC[C@]12CC(C)=NO2` [Example 215, (((3′S,5S,7′R)-10′-((2,4-difluorobenzyl)carbamoyl)-3,3′-dimethyl-1′,11′-dioxo-1′,4′,5′,11′-tetrahydro-3′H,4H,7′H-spiro[isoxazole-5,6′-[2,7]methanopyrido[1,2-a][1,4]diazonin]-12′-yl)oxy)methyl ((S)-1-methoxypropan-2-yl) carbonate], the CC50 at 5 days in data set [1] is at least 50 µM.
On to `COC[C@H](C)OC(=O)OCOc1c2n(cc(C(=O)NCc3ccc(F)cc3F)c1=O)[C@@H]1CN(C2=O)[C@@H](C)CC[C@]12CC(OC)=NO2` [Example 216, (((3′S,5S,7′R)-10′-((2,4-difluorobenzyl)carbamoyl)-3-methoxy-3′-methyl-1′,11′-dioxo-1′,4′,5′,11′-tetrahydro-3′H,4H,7′H-spiro[isoxazole-5,6′-[2,7]methanopyrido[1,2-a][1,4]diazonin]-12′-yl)oxy)methyl ((S)-1-methoxypropan-2-yl) carbonate], for which the CC50 at 5 days in data set [1] is at least 50 µM.
With `CO[C@H](C)COC(=O)OCOc1c2n(cc(C(=O)NCc3ccc(F)cc3F)c1=O)[C@@H]1CN(C2=O)[C@@H](C)CC[C@]12CC(C)=NO2` [Example 217, (((3′S,5S,7′R)-10′-((2,4-difluorobenzyl)carbamoyl)-3,3′-dimethyl-1′,11′-dioxo-1′,4′,5′,11′-tetrahydro-3′H,4H,7′H-spiro[isoxazole-5,6′-[2,7]methanopyrido[1,2-a][1,4]diazonin]-12′-yl)oxy)methyl ((R)-2-methoxypropyl) carbonate], the CC50 at 5 days in data set [1] is 24.6 µM.
Same read-out and setting: next, `CO[C@@H](C)COC(=O)OCOc1c2n(cc(C(=O)NCc3ccc(F)cc3F)c1=O)[C@@H]1CN(C2=O)[C@@H](C)CC[C@]12CC(C)=NO2` [Example 219, (((3′S,5S,7′R)-10′-((2,4-difluorobenzyl)carbamoyl)-3,3′-dimethyl-1′,11′-dioxo-1′,4′,5′,11′-tetrahydro-3′H,4H,7′H-spiro[isoxazole-5,6′-[2,7]methanopyrido[1,2-a][1,4]diazonin]-12′-yl)oxy)methyl ((S)-2-methoxypropyl) carbonate]: 33.9 µM; `COC1=NO[C@@]2(CC[C@H](C)N3C[C@H]2n2cc(C(=O)NCc4ccc(F)cc4F)c(=O)c(OCOC(=O)OC[C@H](C)OC)c2C3=O)C1` [Example 220, (((3′S,5S,7′R)-10′-((2,4-difluorobenzyl)carbamoyl)-3-methoxy-3′-methyl-1′,11′-dioxo-1′,4′,5′,11′-tetrahydro-3′H,4H,7′H-spiro[isoxazole-5,6′-[2,7]methanopyrido[1,2-a][1,4]diazonin]-12′-yl)oxy)methyl ((S)-2-methoxypropyl) carbonate]: 41.6 µM.

As usually defined, the CC50 is the concentration giving 50% cytotoxicity. What is called pEC50 is −log10 of the EC50, conventionally taken in molar units. Usually EC50 stands for the concentration that produces a half-maximal response.
